Converted amounts (≈) assume the structure as drawn. Read-outs that look alike come from different tables or passages of the source.
Assays:
DENV-3 [1] = experiment: Attachment assay; type: cell-based, dengue virus
Method: Vero cells (1 × 10^5 cells/well) were grown overnight in a 24-well plate. […] After 1 h, the flavonoid-treated virus is incubated on ice for 15 min. Next, pre-chilled Vero cells were infected with the pre-chilled flavonoid-treated virus at 4 °C for 1 h to allow virus attachment. Then, the unabsorbed virus was removed, and the cells were washed and overlaid with 1 mL of overlay medium. After 4 days, the reduction in foci was determined by immunostaining.

DENV-3 [2] = experiment: Time course assay for virucidal activity; type: cell-based, dengue virus; conditions: for Time taken to achieve 50% viral infectivity inhibition: co-incubation with DENV-3
Method: Vero cells (1 × 10^5 cells/well) were grown overnight in a 24-well plate. […] Cells were infected with the flavonoid-treated virus and incubated at 37 °C for 1 h. Then, the unabsorbed virus was removed, and the cells were washed and overlaid with 1 mL of overlay medium. After 4 days, the reduction in foci was determined by immunostaining.

DENV-1 = experiment: Virucidal assay against DENV-1, FFURA; type: cell-based; conditions: Dengue virus, DENV1; read-out: Viral infectivity inhibition, DENV-1
Method: (§1) The antiviral activity of flavonoids was determined by measuring the reduction in the number of DENV infectious foci after treatment. The antiviral assays were performed based on Zandi et al.[14] with minor modifications. Briefly, a confluent monolayer of Vero cells seeded in 24-well plates was treated with flavonoids before or after or with the virus infection and incubated for 4 days. The virus foci were visualized using immunostaining. The flavonoids' antiviral activities were determined by calculating the percentage of foci reduction (%RF) according to the following equation: Percentageofinhibition%=(C-T)/C×100% where, C is the number of foci without the flavonoid treatment (control). T is the number of foci with the respective flavonoid treatment.
(§2) After 1 h, the flavonoid-treated virus was used to infect Vero cells at 37 °C for 1 h. Then, the unabsorbed virus was removed, and the cells were washed and overlaid with 1 mL of overlay medium. After 4 days, the reduction in foci was determined by immunostaining. Another parallel experiment was carried out by replacing the overlay medium with DMEM supplemented with 2% FBS to determine the reduction in viral RNA copy number by qRT-PCR as previously described.

DENV-3 [3] = experiment: Virucidal assay against extracellular DENV-3, qRT-PCR (viral RNA copy number); type: cell-based, dengue virus; conditions: for IC50: Dengue virus, DENV3, extracellular DENV-3, reduction in viral RNA copy number, mean ± SEM
Method: (§3) Viral RNA extraction was performed using QIAamp^R Viral RNA extraction kit (QIAGEN, Germany), and viral RNA copy number was quantified using the genesig Real-Time qRT-PCR Standard Kit (PrimerDesign, UK). The reactions were in a final volume of 20 μL containing 10 μL of the master mix, 1 μL of probe/primer mix, 4 μL of nuclease-free water, and 5 μL of viral RNA template. Quantitative PCR was performed using a CFX96 Touch™ Real-Time PCR Detection System (Bio-Rad, USA.) with the following conditions: 10 min at 55 °C (reverse transcription), 2 min at 95 °C (enzyme activation) followed by 50 cycles of amplification (10 s at 95 °C, 60 s at 60 °C). The viral RNA copy number was determined based on the threshold cycles (Ct) and standard curve generated from known RNA standards.
as §2
(§4) The maximum non-toxic dose (MNTD80) and 50% of inhibition (IC50) of flavonoids in Vero cells were calculated using Prism software (GraphPadPrism8, CA, USA) by applying four-parameter logistic non-linear regression model. The selectivity index (SI) was calculated as SI = CC50/IC50. Data presented are the mean ± SEM of three independent experiments. The student t-test was used to analyze the antiviral activity of flavonoids compared to a positive control (*p < 0.05, **p < 0.01, ***p < 0.001, ****p < 0.0001).

DENV-3 [4] = experiment: FACS neutralization test (FNT); type: cell-based, dengue virus; conditions: for FACS gating percentage (FITC-positive population): 10,000 events
Method: Vero cells were seeded in 24 well plates at a density of 1 × 10^5 cells/well and incubated overnight. The antiviral assays were done using MOI 0.5 DENV-3, and FNT was carried out 48 h post-infection. Viral infected cells were harvested by trypsinization and centrifugation (1500 rpm, 5 min). Harvested cells were washed with PBS and fixed with 250 µL of BD Cytofix/Cytoperm™ Fixation/Permeabilization solution kit with BD GolgiStop™ (BD Biosciences, USA) solution and incubated on ice for 20 min in the dark. The cells were centrifuged at 3000 rpm for 2 min and washed two times with stain buffer (PBS + 5%FBS). Staining was performed with 50 µL of anti-dengue virus type III primary antibody, clone 5D4-11 (MAB8703 Sigma-Aldrich, USA), diluted in Cytoperm/Cytowash solution at a ratio of 1:1000 and incubated for 1 h on ice. After that, the cells were washed and stained with 50 µL of FITC-conjugated secondary antibody (Sigma-Aldrich, USA) diluted in Cytoperm/Cytowash solution at a ratio of 1:1000 and incubated for 1 h on ice in the dark. The samples were analyzed in a BD FACSCalibur flow cytometer (BD Biosciences, USA) using BD Cellquest pro software. For each sample, 10,000 events were collected, and the percent reduction in the number of infected cells was calculated using the following equation. Percentageofinhibition%=(C-T)/C×100% where, C is the percentage of viral infected cells among the 10,000 events without flavonoid treatment (control). T is the percentage of infected cells among the 10,000 events with the respective flavonoid treatment.
Percent reduction in virus-infected cells was represented as the mean ± standard error of the mean (SEM) from triplicate assays determined from three independent experiments.

DENV-3 [5] = experiment: Entry assay; type: cell-based, dengue virus
Method: Pre-chilled DENV-3 (80 FFU/well) in the absence of flavonoids were added to the pre-chilled Vero cells and incubated at 4 °C to allow virus attachment. […] After that, the medium containing flavonoids was removed, and Vero cells were washed and treated with acidic PBS (pH 3) for 60 s to inactivate the extracellular virus. After 60 s, the acidic PBS was neutralized by alkaline PBS (pH 11) in each well. Next, cells were then washed with serum-free media and overlaid with 1 mL of overlay medium. After 4 days, the reduction in foci was determined by immunostaining.

DENV-4 = experiment: Virucidal assay against DENV-4, FFURA; type: cell-based; conditions: Dengue virus, DENV4; read-out: Viral infectivity inhibition, DENV-4
Method: as §1, §2

[6] = Cytotoxicity of flavonoids in Vero cells by MTS assay; type: cell-based, African green monkey; conditions: African green monkey
Method: (§5) The cytotoxic potential of flavonoids in Vero cells was assessed by MTS assay. Briefly, confluent Vero cells in a 96 well plate were treated with different concentrations of flavonoids in triplicates with DMEM containing 2% FBS. After 2 days, 20 μL of 3-(4,5-Dimethylthiazol-2-yl)-5-(3-carboxymethoxyphenyl)-2-(4-sulfophenyl)-2H-tetrazolium (MTS) reagent (Promega, France) was added to each well. After 1 h of incubation at 37 °C, the cells were agitated, and the absorbance was measured at 490 nm in a microplate reader (Tecan, Infinite M2000, Switzerland). Maximum non-toxic dose (MNTD80) and 50% cytotoxic concentration (CC50) were calculated by non-linear regression using prism software (GraphPadPrism8, USA).
as §4

Vero cells [7] = experiment: as above; type: cell-based, African green monkey; conditions: 48 h; for Concentrations up to which no significant cytotoxic effects were seen: African green monkey; for MNTD80 (maximum non-toxic dose, 80% of cells viable): Vero cells, MTS assay, mean ± SEM
Method: as §5, §4

DENV-3 progeny [8] = experiment: Post-infection assay, intracellular DENV-3 progeny, FFURA; type: cell-based, dengue virus; conditions: for IC50: 48 h treatment, mean ± SEM, read-out: IC50 against DENV-3 progeny, FFURA
Method: as §1
(§6) To determine the activity of flavonoids in inhibiting the intracellular viral progeny, Vero cells (1 × 10^5 cells/well) in a 24-wells plate were infected with DENV-3 (MOI = 0.1) for 1 h at 37 °C. […] After 48 h, the viral supernatant was collected, and twofold dilution was used to reinfect fresh monolayer of Vero cells, and the reduction in viral titer was quantified using FFURA and qRT-PCR.
as §4

DENV-2 = experiment: Virucidal assay against DENV-2, FFURA; type: cell-based; conditions: Dengue virus, DENV2; read-out: Viral infectivity inhibition, DENV-2
Method: as §1, §2

DENV-3 progeny [9] = experiment: Post-infection assay, intracellular DENV-3 progeny, qRT-PCR; type: cell-based, dengue virus; conditions: for IC50: Dengue virus, DENV3, 48 h treatment, mean ± SEM, read-out: IC50 against DENV-3 progeny, qRT-PCR
Method: as §3, §6, §4

EVA-71 = conditions: cited from earlier work
DENV-3 [10] = experiment: Virucidal assay against extracellular DENV-3, FFURA (foci reduction); type: cell-based, dengue virus; conditions: for IC50: extracellular DENV-3, reduction in virus foci, mean ± SEM; for Viral foci reduction at highest concentration, virucidal assay: silymarin 200 µg/mL, baicalein 100 µg/mL, baicalin 20 µg/mL, DENV-3
Method: as §1, §2, §4

Vero cells [11] = test system: Vero cells; parameters: method as in Moghaddam et al. 15; conditions: ref Moghaddam et al. 15; cited from earlier work
[12] = silymarin 200, baicalein 100, baicalin 20 µg/mL
[13] = Dengue virus, DENV3, post-infection assay
[14] = Dengue virus, DENV3, read-out: Maximum inhibition of intracellular viral progeny infectivity

## O=c1cc(-c2ccccc2)oc2cc(O)c(O)c(O)c12 [Baicalein]
DENV-3 [1]; DENV-3 to Vero cells, silymarin 200, baicalein 100, baicalin 20 µg/mL
  Inhibition of viral attachment: 95.59 ± 1.44%
DENV-3 [2]; 0 min co-incubation, silymarin 200, baicalein 100, baicalin 20 µg/mL
  Viral infectivity inhibition achieved at 0 min: 62.45 ± 3.67%
DENV-3 [2]; 60 min co-incubation, silymarin 200, baicalein 100, baicalin 20 µg/mL
  Viral infectivity inhibition at 60 min co-incubation (maximum): 97.24%
DENV-3 [2]; [12]
  Time taken to achieve 50% viral infectivity inhibition: 0 min
DENV-3 [2]; silymarin 200, baicalein 100 µg/mL
  Co-incubation time to reach up to 75% viral infectivity inhibition: 15 min
DENV-1
  inhibition at 100 µg/mL: 96.7 ± 2.1%
DENV-3 [3]
  IC50: 17.2 ± 2.48 µg/mL (≈ 63.8 µM)
DENV-3 [4]; [12]
  FACS gating percentage (FITC-positive population): 0.44%
DENV-3 [4]; MOI 0.5, 48 h post-infection, silymarin 200, baicalein 100, baicalin 20 µg/mL
  Percentage of inhibition of DENV-3 infected cell population (FNT): 97.92%
DENV-3 [5]; DENV-3 into Vero cells, silymarin 200, baicalein 100, baicalin 20 µg/mL
  Inhibition of viral entry: 57.91 ± 11.65%
DENV-4
  inhibition at 100 µg/mL: 80.49 ± 0.26%
[6]; Vero cells, MTS assay, 48 h, mean ± SEM, read-out: CC50 (half maximum cytotoxic concentration)
  CC50 at 48 h: 271 ± 6.57 µg/mL (≈ 1000 µM)
Vero cells [7]
  Concentrations up to which no significant cytotoxic effects were seen: ≤ 100 µg/mL
  MNTD80 (maximum non-toxic dose, 80% of cells viable): 122.95 ± 2.37 µg/mL
DENV-3 progeny [8]; [13]
  IC50: 34.7 ± 6.71 µg/mL (≈ 128 µM)
DENV-3 progeny [8]; [14]
  inhibition at 100 µg/mL: 79.7%
DENV-2
  inhibition at 100 µg/mL: 97.2 ± 1.41%
DENV-3 progeny [9]
  IC50: 29.7 ± 12.8 µg/mL (≈ 110 µM)
EVA-71; silymarin at < 1 min contact, baicalein maximum at 60 min
  Virucidal effect against EVA-71: 60%
EVA-71; silymarin for 65% effect, baicalein for maximum of 60% effect
  Period of contact (co-incubation time) needed for the virucidal effect: 60 min
DENV-3 [10]; Dengue virus, DENV3
  IC50: 12.7 ± 3.49 µg/mL (≈ 47 µM)
DENV-3 [10]; Dengue virus, DENV3, read-out: Viral infectivity inhibition, DENV-3
  inhibition at 100 µg/mL: 99.68 ± 0.1%
DENV-3 [10]
  Viral foci reduction at highest concentration, virucidal assay: 99.78%

## O=C(O)[C@H]1O[C@@H](Oc2cc3oc(-c4ccccc4)cc(=O)c3c(O)c2O)[C@H](O)[C@@H](O)[C@@H]1O [Baicalin]
DENV-3 [1]; Dengue virus, DENV3, Vero, read-out: Inhibition of viral attachment
  inhibition at 20 µg/mL: 48.5 ± 9.1%
DENV-3 [2]; Dengue virus, DENV3, 1 h, read-out: Viral infectivity inhibition at 60 min co-incubation (maximum)
  inhibition at 20 µg/mL: 66.9%
DENV-3 [2]; [12]
  Time taken to achieve 50% viral infectivity inhibition: 25.8 min
Vero cells [11]
  CC50: 290.9 µg/mL (≈ 652 µM)
DENV-3 [3]
  IC50: 17.4 ± 6.51 µg/mL (≈ 39 µM)
DENV-3 [3]; extracellular DENV-3
  SI (CC50/IC50), virucidal assay, qRT-PCR: 3.14
DENV-3 [4]; [12]
  FACS gating percentage (FITC-positive population): 42.35%
DENV-3 [4]; Dengue virus, DENV3, 48 h, read-out: Percentage of inhibition of DENV-3 infected cell population (FNT)
  inhibition at 20 µg/mL: 31.9%
DENV-3 [5]; Dengue virus, DENV3, Vero, read-out: Inhibition of viral entry
  inhibition at 20 µg/mL: 49.8 ± 8.78%
[6]
  CC50 at 48 h: 54.6 ± 0.76 µg/mL (≈ 122 µM)
Vero cells [7]
  Concentrations up to which no significant cytotoxic effects were seen: ≤ 20 µg/mL
  MNTD80 (maximum non-toxic dose, 80% of cells viable): 19.15 ± 0.07 µg/mL
DENV-3 progeny [8]; [13]
  IC50: 5.31 ± 1.96 µg/mL (≈ 11.9 µM)
DENV-3 progeny [8]; [14]
  inhibition at 20 µg/mL: 81%
DENV-3 progeny [8]; post-infection assay
  SI (CC50/IC50) against DENV-3 progeny, FFURA: 10.29
DENV-3 progeny [9]
  SI (CC50/IC50) against DENV-3 progeny, qRT-PCR: 12.06
  IC50: 4.53 ± 0.62 µg/mL (≈ 10.1 µM)
DENV-3 [10]; Dengue virus, DENV3
  IC50: 7.38 ± 1.1 µg/mL (≈ 16.5 µM)
DENV-3 [10]; extracellular DENV-3
  SI (CC50/IC50), virucidal assay, FFURA: 7.40
DENV-3 [10]
  Viral foci reduction at highest concentration, virucidal assay: 76%

Reference: PMC8551334 (Scientific Reports, 2021)
